Legend:
Type in all cases: in vivo
[1] = test system: redroot pigweed (Amaranthus retroflexus, AMARE); test: Pre-emerge test, greenhouse herbicide activity screening; conditions: pre-emerge, 14 days after application, rating scale 0-100
Procedure, shortened: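 Visual ratings on a 0-100 scale (0 no damage, 100 all plants dead) were taken at 14 days after treatment. Rates of 15-1000 g ai/ha in acetone, 187 l/ha, were sprayed onto soil one day after planting (pre-emerge) or onto 2-3 leaf plants with 0.25% v/v surfactant (post-emerge).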

[2] = test system: barnyardgrass (Echinochloa crus-galli, ECHCG); test: as above; conditions: pre-emerge, 14 days after application, rating scale 0-100
Procedure, shortened: (§1)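 Herbicidal damage is scored 0 (none) to 100 (complete plant death) two weeks after a simulated field spray. Rates span 15–1000 g ai/ha, delivered in acetone at 187 l/ha. For post-emergence treatments, plants have 2–3 leaves and the spray carries 0.25% v/v non-ionic surfactant.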

[3] = test system: common ragweed (Ambrosia artemisizfolia L., AMBEL); test: as above; conditions: pre-emerge, 14 days after application, rating scale 0-100
Procedure, shortened: as §1

[4] = test system: green foxtail (Setaria viridis, SETVI); test: as above; conditions: pre-emerge, 14 days after application, rating scale 0-100
Procedure, shortened: as §1

[5] = test system: ivyleaf morningglory (Ipomoea hederacea, IPOHE); test: as above; conditions: pre-emerge, 14 days after application, rating scale 0-100
Procedure, shortened: as §1

[6] = test system: johnsongrass (Sorghum halepense, SORHA); test: as above; conditions: pre-emerge, 14 days after application, rating scale 0-100
Procedure, shortened: as §1

[7] = test system: lambsquarters (Chenopodium album, CHEAL); test: as above; conditions: pre-emerge, 14 days after application, rating scale 0-100
Procedure, shortened: as §1

[8] = test system: large crabgrass (Digitaria sanguinalis, DIGSA); test: as above; conditions: pre-emerge, 14 days after application, rating scale 0-100
Procedure, shortened: as §1

[9] = test system: sicklepod (Cassia obtusifolia, CASOB); test: as above; conditions: pre-emerge, 14 days after application, rating scale 0-100
Procedure, shortened: as §1

[10] = test system: velvetleaf (Abutilon theophrasti, ABUTH); test: as above; conditions: pre-emerge, 14 days after application, rating scale 0-100
Procedure, shortened: as §1

[11] = test system: field corn (Zea mays L., var. Dekalb 535, CORN); test: Pre-emerge test, crop safety; conditions: pre-emerge, 14 days after application, rating scale 0-100
Procedure, shortened: (§2)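 Sandy loam pots; pre-emerge: sown 1 d pre-spray, surface-watered after, then bottom-watered. Post-emerge: sown 8–21 d before, 2–3 leaf stage, + 0.25% v/v NIS, bottom-watered. Acetone, 187 l/ha track spray, 15–1000 g ai/ha. 0–100 injury score, day 14.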

[12] = test system: upland rice (Oryza sp., var. Tebonnet, RICE); test: Pre-emerge test, crop safety; conditions: pre-emerge, 14 days after application, rating scale 0-100
Procedure, shortened: as §2

[13] = test system: barnyardgrass (Echinochloa crus-galli, ECHCG); test: Post-emerge test, greenhouse herbicide activity screening; conditions: rating scale 0-100 (0 no damage, 100 complete death), 14 days after application
Procedure, shortened: (§3)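 Plants grown in 10 cm pots of sandy loam mix received acetone-dissolved compounds through a moving flat-fan nozzle. Doses ranged from 15 to 1000 g ai/ha. Pre-emerge pots were seeded one day earlier, post-emerge pots 8–21 days earlier. Fourteen days on, each pot was graded 0–100 for damage.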

[14] = test system: green foxtail (Setaria viridis, SETVI); test: as above; conditions: rating scale 0-100 (0 no damage, 100 complete death), 14 days after application
Procedure, shortened: as §3

[15] = test system: ivyleaf morningglory (Ipomoea hederacea, IPOHE); test: as above; conditions: rating scale 0-100 (0 no damage, 100 complete death), 14 days after application
Procedure, shortened: as §3

[16] = test system: johnsongrass (Sorghum halepense, SORHA); test: as above; conditions: rating scale 0-100 (0 no damage, 100 complete death), 14 days after application
Procedure, shortened: as §3

[17] = test system: lambsquarters (Chenopodium album, CHEAL); test: as above; conditions: rating scale 0-100 (0 no damage, 100 complete death), 14 days after application
Procedure, shortened: as §3

[18] = test system: large crabgrass (Digitaria sanguinalis, DIGSA); test: as above; conditions: rating scale 0-100 (0 no damage, 100 complete death), 14 days after application
Procedure, shortened: as §3

[19] = test system: redroot pigweed (Amaranthus retroflexus, AMARE); test: as above; conditions: rating scale 0-100 (0 no damage, 100 complete death), 14 days after application
Procedure, shortened: as §3

[20] = test system: sicklepod (Cassia obtusifolia, CASOB); test: as above; conditions: rating scale 0-100 (0 no damage, 100 complete death), 14 days after application
Procedure, shortened: as §3

[21] = test system: velvetleaf (Abutilon theophrasti, ABUTH); test: as above; conditions: rating scale 0-100 (0 no damage, 100 complete death), 14 days after application
Procedure, shortened: as §3

[22] = test system: field corn (Zea mays L., var. Dekalb 535, CORN); test: Post-emerge test, crop safety; conditions: rating scale 0-100 (0 no damage, 100 complete death), 14 days after application
Procedure, shortened: as §1

[23] = test system: upland rice (Oryza sp., var. Tebonnet, RICE); test: Post-emerge test, crop safety; conditions: rating scale 0-100 (0 no damage, 100 complete death), 14 days after application
Procedure, shortened: as §1

In the case of CCOC(=O)C(Cl)Cc1c(C)c(Cl)cc(F)c1-n1c(=O)cc(C(F)(F)F)n(C)c1=O (stereo not shown) [14-54], the “phytotoxicity rating AMARE” value ([1]; 63 g ai/ha) is reported as 20, the “phytotoxicity rating AMARE” value ([1]; 250 g ai/ha) is reported as 85 and the “phytotoxicity rating ECHCG” value ([2]; 63 g ai/ha) is reported as 0. For the same compound, the “phytotoxicity rating ECHCG” value ([2]; 250 g ai/ha) was 0, the “phytotoxicity rating AMBEL” value ([3]; 63 g ai/ha) was 0 and the “phytotoxicity rating AMBEL” value ([3]; 250 g ai/ha) was 0. For the same compound, the “phytotoxicity rating SETVI” value ([4]; 63 g ai/ha) was 20, the “phytotoxicity rating SETVI” value ([4]; 250 g ai/ha) was 80 and the “phytotoxicity rating IPOHE” value ([5]; 63 g ai/ha) was 0. For the same compound, the “phytotoxicity rating IPOHE” value ([5]; 250 g ai/ha) was 40, the “phytotoxicity rating SORHA” value ([6]; 63 g ai/ha) was 0 and the “phytotoxicity rating SORHA” value ([6]; 250 g ai/ha) was 30. For the same compound, the “phytotoxicity rating CHEAL” value ([7]; 63 g ai/ha) was 10, the “phytotoxicity rating CHEAL” value ([7]; 250 g ai/ha) was 100 and the “phytotoxicity rating DIGSA” value ([8]; 63 g ai/ha) was 0. The “phytotoxicity rating DIGSA” value ([8]; 250 g ai/ha) was 30, the “phytotoxicity rating CASOB” value ([9]; 63 g ai/ha) was 0 and the “phytotoxicity rating CASOB” value ([9]; 250 g ai/ha) was 10. The “phytotoxicity rating ABUTH” value ([10]; 63 g ai/ha) was 0, the “phytotoxicity rating ABUTH” value ([10]; 250 g ai/ha) was 70 and the “phytotoxicity rating CORN” value ([11]; 63 g ai/ha) was 0. The “phytotoxicity rating CORN” value ([11]; 250 g ai/ha) was 0, the “phytotoxicity rating RICE” value ([12]; 63 g ai/ha) was 0 and the “phytotoxicity rating RICE” value ([12]; 250 g ai/ha) was 15. The “Post-emerge Herbicidal Activity, phytotoxicity rating ECHCG” value ([13]; Rate 63 g ai/ha) was 30, the “Post-emerge Herbicidal Activity, phytotoxicity rating ECHCG” value ([13]; Rate 250 g ai/ha) was 30 and the “Post-emerge Herbicidal Activity, phytotoxicity rating SETVI” value ([14]; Rate 63 g ai/ha) was 10. The “Post-emerge Herbicidal Activity, phytotoxicity rating SETVI” value ([14]; Rate 250 g ai/ha) was 10, the “Post-emerge Herbicidal Activity, phytotoxicity rating IPOHE” value ([15]; Rate 63 g ai/ha) was 30 and the “Post-emerge Herbicidal Activity, phytotoxicity rating IPOHE” value ([15]; Rate 250 g ai/ha) was 80. The “Post-emerge Herbicidal Activity, phytotoxicity rating SORHA” value ([16]; Rate 63 g ai/ha) was 0, the “Post-emerge Herbicidal Activity, phytotoxicity rating SORHA” value ([16]; Rate 250 g ai/ha) was 0 and the “Post-emerge Herbicidal Activity, phytotoxicity rating CHEAL” value ([17]; Rate 63 g ai/ha) was 20. The “Post-emerge Herbicidal Activity, phytotoxicity rating CHEAL” value ([17]; Rate 250 g ai/ha) was 60, the “Post-emerge Herbicidal Activity, phytotoxicity rating DIGSA” value ([18]; Rate 63 g ai/ha) was 0 and the “Post-emerge Herbicidal Activity, phytotoxicity rating DIGSA” value ([18]; Rate 250 g ai/ha) was 10. For the same compound, the “Post-emerge Herbicidal Activity, phytotoxicity rating AMARE” value ([19]; Rate 63 g ai/ha) was 40, the “Post-emerge Herbicidal Activity, phytotoxicity rating AMARE” value ([19]; Rate 250 g ai/ha) was 50 and the “Post-emerge Herbicidal Activity, phytotoxicity rating CASOB” value ([20]; Rate 63 g ai/ha) was 0. For the same compound, the “Post-emerge Herbicidal Activity, phytotoxicity rating CASOB” value ([20]; Rate 250 g ai/ha) was 30, the “Post-emerge Herbicidal Activity, phytotoxicity rating ABUTH” value ([21]; Rate 63 g ai/ha) was 60 and the “Post-emerge Herbicidal Activity, phytotoxicity rating ABUTH” value ([21]; Rate 250 g ai/ha) was 80. For the same compound, the “Post-emerge phytotoxicity rating CORN (crop damage)” value ([22]; Rate 63 g ai/ha) was 5, the “Post-emerge phytotoxicity rating CORN (crop damage)” value ([22]; Rate 250 g ai/ha) was 15 and the “Post-emerge phytotoxicity rating RICE (crop damage)” value ([23]; Rate 63 g ai/ha) was 10. For the same compound, the “Post-emerge phytotoxicity rating RICE (crop damage)” value ([23]; Rate 250 g ai/ha) was 10.

— patent US6355799B1, “Substituted benzene compounds, process for their preparation, and herbicidal and defoliant compositions containing them” (ISK Americas Incorporated, priority 1997, dated 2002)
